Columns and labels:
[1] = system: OPM-2 human multiple myeloma cell line; assay: Cell Viability Assay (OPM-2 10 FBS); type: cell-based; settings: Homo sapiens, OPM-2, 16 h, OPM-2 cells, 16 h, CellTiter-Glo
Summary of the method: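 OPM-2 myeloma cells, 3000/well in medium with 10% FBS, exposed to serially diluted compounds for 16 h at 37° C./5% CO2. Viability read by CellTiter-Glo luminescence; IC50 from 4-parameter logistic fit.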

[2] = target: T1, Mcl-1/Bim interaction, recombinant human Mcl-1 (171-327) (Homo sapiens, UniProt Q07820); assay: Cell free Mcl-1: Bim Affinity Assay (Mcl-1 HTRF); type: binding; settings: TR-FRET, 0.1 nM Mcl-1 (171-327), 0.05 nM biotin-Bim (51-76)
T1 construct: made in house
T1 sequence (Q07820 171-327): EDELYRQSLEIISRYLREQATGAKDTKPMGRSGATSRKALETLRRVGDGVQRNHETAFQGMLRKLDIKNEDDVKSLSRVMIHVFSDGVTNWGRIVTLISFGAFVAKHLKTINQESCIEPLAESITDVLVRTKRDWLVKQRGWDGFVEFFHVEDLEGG
Summary of the method: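 Read-out is time-resolved FRET after overnight incubation, using a biotin-labelled peptide from human Bim (51-76) as the binding partner; IC50 was derived from competition curves.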

IC50 [1]	IC50 [2]	Structure (SMILES)
524 nM	0.562 nM	COCCO[C@H]1/C=C/CCN(CCOC)S(=O)(=O)NC(=O)c2ccc3c(c2)N(C[C@@H]2CC[C@H]21)C[C@@]1(CCCc2cc(Cl)ccc21)CO3 [Example 48, (1S,3′R,6′R,7′S,8′E)-6-chloro-7′-(2-methoxyethoxy)-12′-(2-methoxyethyl)-3,4-dihydro-2H,15′H-spiro[naphthalene-1,22′-[20]oxa[13]thia[1,12,14]triazatetracyclo[14.7.2.0^3,6.0^19,24]pentacosa[8,16,18,24]tetraen]-15′-one 13′,13′-dioxide]
2380 nM	6.25 nM	C[C@@H]1C/C=C/[C@H](O)[C@@H]2CC[C@H]2CN2C[C@@]3(CCCc4cc(Cl)ccc43)COc3ccc(cc32)C(=O)NS(=O)(=O)N1C[C@H]1CCCO1 [Example 55, (1S,3′R,6′R,7′S,8′E,11R)-6-chloro-7′-hydroxy-11′-methyl-12′-((2R)-tetrahydro-2-furanylmethyl)-3,4-dihydro-2H,15′H-spiro[naphthalene-1,22′-[20]oxa[13]thia[1,12,14]triazatetracyclo[14.7.2.0^3,6.0^19,24]pentacosa[8,16,18,24]tetraen]-15′-one 13′,13′-dioxide]
7450 nM	4.27 nM	CCN1[C@H](C)C/C=C/[C@H](O)[C@@H]2CC[C@H]2CN2C[C@@]3(CCCc4cc(Cl)ccc43)COc3ccc(cc32)C(=O)NS1(=O)=O [Example 59, (1S,3′R,6′R,7′S,8′E,11R)-6-chloro-12′-ethyl-7′-hydroxy-11′-methyl-3,4-dihydro-2H,15′H-spiro[naphthalene-1,22′-[20]oxa[13]thia[1,12,14]triazatetracyclo[14.7.2.0^3,6.0^19,24]pentacosa[8,16,18,24]tetraen]-15′-one 13′,13′-dioxide]
492 nM	2.31 nM	C[C@H]1C/C=C/[C@H](O)[C@@H]2CC[C@H]2CN2C[C@@]3(CCCc4cc(Cl)ccc43)COc3ccc(cc32)C(=O)NS(=O)(=O)N1CCN1CCOCC1 [Example 66, (1S,3′R,6′R,7′S,8′E,11′S)-6-chloro-7′-hydroxy-11′-methyl-12′-(2-(4-morpholinyl)ethyl)-3,4-dihydro-2H,15′H-spiro[naphthalene-1,22′-[20]oxa[13]thia[1,12,14]triazatetracyclo[14.7.2.0^3,6.0^19,24]pentacosa[8,16,18,24]tetraen]-15′-one 13′,13′-dioxide]
450 nM	1.51 nM	C[C@H]1C/C=C/[C@H](OCCN2CCOCC2)[C@@H]2CC[C@H]2CN2C[C@@]3(CCCc4cc(Cl)ccc43)COc3ccc(cc32)C(=O)NS(=O)(=O)N1 [Example 67, (1S,3′R,6′R,7′S,8′E,11′S)-6-chloro-11′-methyl-7′-(2-(4-morpholinyl)ethoxy)-3,4-dihydro-2H,15′H-spiro[naphthalene-1,22′-[20]oxa[13]thia[1,12,14]triazatetracyclo[14.7.2.0^3,6.0^19,24]pentacosa[8,16,18,24]tetraen]-15′-one 13′,13′-dioxide]
248 nM	0.359 nM	COCCO[C@H]1/C=C/C[C@H](C)NS(=O)(=O)NC(=O)c2ccc3c(c2)N(C[C@@H]2CC[C@H]21)C[C@@]1(CCCc2cc(Cl)ccc21)CO3 [Example 68, (1S,3′R,6′R,7′S,8′E,11′S)-6-chloro-7′-(2-methoxyethoxy)-11′-methyl-3,4-dihydro-2H,15′H-spiro[naphthalene-1,22′-[20]oxa[13]thia[1,12,14]triazatetracyclo[14.7.2.0^3,6.0^19,24]pentacosa[8,16,18,24]tetraen]-15′-one 13′,13′-dioxide]
44.2 nM	1.16 nM	COC(=O)CCO[C@H]1/C=C/C[C@H](C)NS(=O)(=O)NC(=O)c2ccc3c(c2)N(C[C@@H]2CC[C@H]21)C[C@@]1(CCCc2cc(Cl)ccc21)CO3 [Example 70, methyl 3-(((1S,3′R,6′R,7′S,8′E,11′S)-6-chloro-11′-methyl-13′,13′-dioxido-15′-oxo-3,4-dihydro-2H-spiro [naphthalene-1,22′-[20]oxa[13]thia[1,12,14]triazatetracyclo[14.7.2.0^3,6.0^19,24]pentacosa[8,16,18,24]tetraen]-7′-yl)oxy)propanoate]
3160 nM	2.62 nM	C[C@@H]1C/C=C/[C@H](O)[C@@H]2CC[C@H]2CN2C[C@@]3(CCCc4cc(Cl)ccc43)COc3ccc(cc32)C(=O)NS(=O)(=O)N1 [Example 71, (1S,3′R,6′R,7′S,8′E,11R)-6-chloro-7′-hydroxy-11′-methyl-3,4-dihydro-2H,15′H-spiro[naphthalene-1,22′-[20]oxa[13]thia[1,12,14]triazatetracyclo[14.7.2.0^3,6.0^19,24]pentacosa[8,16,18,24]tetraen]-15′-one 13′,13′-dioxide]
146 nM	0.405 nM	C[C@H]1C/C=C/[C@H](O)[C@@H]2CC[C@H]2CN2C[C@@]3(CCCc4cc(Cl)ccc43)COc3ccc(cc32)C(=O)NS(=O)(=O)N1CCN(C)C [Example 76, (1S,3′R,6′R,7′S,8′E,11′S)-6-chloro-12′-(2-(dimethylamino)ethyl)-7′-hydroxy-11′-methyl-3,4-dihydro-2H,15′H-spiro[naphthalene-1,22′-[20]oxa[13]thia[1,12,14]triazatetracyclo[14.7.2.0^3,6.0^19,24]pentacosa[8,16,18,24]tetraen]-15′-one 13′,13′-dioxide]

Further lines, the compound ahead of its results:

Structure (SMILES)	IC50 [1]	IC50 [2]
O=C(O)CCN1CC/C=C/[C@H](O)[C@@H]2CC[C@H]2CN2C[C@@]3(CCCc4cc(Cl)ccc43)COc3ccc(cc32)C(=O)NS1(=O)=O [Example 33, 3-((1S,3′R,6′R,7′S,8′E)-6-chloro-7′-hydroxy-13′,13′-dioxido-15′-oxo-3,4-dihydro-2H,12′H-spiro[naphthalene-1,22′-[20]oxa[13]thia[1,12,14]triazatetracyclo[14.7.2.0^3,6.0^19,24]pentacosa[8,16,18,24]tetraen]-12′-yl)propanoic Acid]	8160 nM	0.168 nM
CS(=O)(=O)CCN1CC/C=C/[C@H](O)[C@@H]2CC[C@H]2CN2C[C@@]3(CCCc4cc(Cl)ccc43)COc3ccc(cc32)C(=O)NS1(=O)=O [Example 34, (1S,3′R,6′R,7′S,8′E)-6-chloro-7′-hydroxy-12′-(2-(methylsulfonyl)ethyl)-3,4-dihydro-2H,15′H-spiro[naphthalene-1,22′-[20]oxa[13]thia[1,12,14]triazatetracyclo[14.7.2.0^3,6.0^19,24]pentacosa[8,16,18,24]tetraen]-15′-one 13′,13′-dioxide]	3600 nM	0.62 nM
CCN(CC)S(=O)(=O)CCN1CC/C=C/[C@H](O)[C@@H]2CC[C@H]2CN2C[C@@]3(CCCc4cc(Cl)ccc43)COc3ccc(cc32)C(=O)NS1(=O)=O [Example 35, 2-((1S,3′R,6′R,7′S,8′E)-6-chloro-7′-hydroxy-13′,13′-dioxido-15′-oxo-3,4-dihydro-2H,12′H-spiro[naphthalene-1,22′-[20]oxa[13]thia[1,12,14]triazatetracyclo[14.7.2.0^3,6.0^19,24]pentacosa[8,16,18,24]tetraen]-12′-yl)-N,N-diethylethanesulfonamide]	1280 nM	1.55 nM
O=C1NS(=O)(=O)NCC/C=C\[C@H](O)[C@@H]2CC[C@H]2CN2C[C@@]3(CCCc4cc(Cl)ccc43)COc3ccc1cc32 [Example 36, (1S,3′R,6′R,7′S,8′Z)-6-chloro-7′-hydroxy-3,4-dihydro-2H,15′H-spiro[naphthalene-1,22′-[20]oxa[13]thia[1,12,14]triazatetracyclo[14.7.2.0^3,6.0^19,24]pentacosa[8,16,18,24]tetraen]-15′-one 13′,13′-dioxide]	2590 nM	0.535 nM
CS(=O)(=O)CCN1CC/C=C\[C@H](O)[C@@H]2CC[C@H]2CN2C[C@@]3(CCCc4cc(Cl)ccc43)COc3ccc(cc32)C(=O)NS1(=O)=O [Example 37, (1S,3′R,6′R,7′S,8′Z)-6-chloro-7′-hydroxy-12′-(2-(methylsulfonyl)ethyl)-3,4-dihydro-2H,15′H-spiro[naphthalene-1,22′-[20]oxa[13]thia[1,12,14]triazatetracyclo[14.7.2.0^3,6.0^19,24]pentacosa[8,16,18,24]tetraen]-15′-one 13′,13′-dioxide]	2570 nM	0.614 nM
O=C1NS(=O)(=O)N(CC2COC2)CC/C=C/[C@H](O)[C@@H]2CC[C@H]2CN2C[C@@]3(CCCc4cc(Cl)ccc43)COc3ccc1cc32 [Example 40, (1S,3′R,6′R,7′S,8′E)-6-chloro-7′-hydroxy-12′-(3-oxetanylmethyl)-3,4-dihydro-2H,15′H-spiro[naphthalene-1,22′-[20]oxa[13]thia[1,12,14]triazatetracyclo[14.7.2.0^3,6.0^19,24]pentacosa[8,16,18,24]tetraen]-15′-one 13′,13′-dioxide]	971 nM	0.462 nM
C=CCN1CC/C=C/[C@H](O)[C@@H]2CC[C@H]2CN2C[C@@]3(CCCc4cc(Cl)ccc43)COc3ccc(cc32)C(=O)NS1(=O)=O [Example 42, (1S,3′R,6′R,7′S,8′E)-6-chloro-7′-hydroxy-12′-(2-propen-1-yl)-3,4-dihydro-2H,15′H-spiro[naphthalene-1,22′-[20]oxa[13]thia[1,12,14]triazatetracyclo[14.7.2.0^3,6.0^19,24]pentacosa[8,16,18,24]tetraen]-15′-one 13′,13′-dioxide]	842 nM	0.57 nM
CCN1CC/C=C/[C@H](OCC(=O)OC)[C@@H]2CC[C@H]2CN2C[C@@]3(CCCc4cc(Cl)ccc43)COc3ccc(cc32)C(=O)NS1(=O)=O [Example 43, methyl(((1S,3′R,6′R,7′S,8′E)-6-chloro-12′-ethyl-13′,13′-dioxido-15′-oxo-3,4-dihydro-2H-spiro[naphthalene-1,22′-[20]oxa[13]thia[1,12,14]triazatetracyclo[14.7.2.0^3,6.0^19,24]pentacosa[8,16,18,24]tetraen]-7′-yl)oxy)acetate]	536 nM	0.995 nM

Source: patent US12091425B2 (AMGEN INC., priority 2016, dated 2024)
